From PubChem BioAssay (NCI)
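These data come from cells grown in 96-well plates and exposed to compound for 48 hours at five concentrations. At the TGI there is no net growth.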

What was measured:
Assay in all cases: NCI anticancer screen, dose series, 48 h
EKVX NSCLC = test system: EKVX NSCLC
SK-MEL-5 melanoma = test system: SK-MEL-5 melanoma
NCI-H522 lung = test system: NCI-H522 lung
HOP-92 NSCLC = test system: HOP-92 NSCLC
M14 melanoma = test system: M14 melanoma
UACC-257 melanoma = test system: UACC-257 melanoma
LOX IMVI melanoma = test system: LOX IMVI melanoma
RXF 393 renal = test system: RXF 393 renal
MDA-N = test system: MDA-N
U251 CNS = test system: U251 CNS
A549 NSCLC = test system: A549 NSCLC
T-47D breast = test system: T-47D breast
A498 renal = test system: A498 renal
SR leukemia = test system: SR leukemia
UACC-62 melanoma = test system: UACC-62 melanoma
SN12C renal = test system: SN12C renal
HS 578T breast = test system: HS 578T breast

SMILES | TGI (EKVX NSCLC) | TGI (SK-MEL-5 melanoma) | TGI (NCI-H522 lung) | TGI (HOP-92 NSCLC) | TGI (M14 melanoma) | TGI (UACC-257 melanoma) | TGI (LOX IMVI melanoma) | TGI (RXF 393 renal) | TGI (MDA-N) | TGI (U251 CNS) | TGI (A549 NSCLC) | TGI (T-47D breast) | TGI (A498 renal) | TGI (SR leukemia) | TGI (UACC-62 melanoma) | TGI (SN12C renal) | TGI (HS 578T breast)
CC1(c2ccccc2)O[C@@H]2C[C@H]3[C@@H]4CCC5=CC(=O)C=C[C@]5(C)[C@@]4(F)[C@@H](O)C[C@]3(C)[C@]2(C(=O)CO)O1 (stereo not given in full) | 30.4 µM | 28.2 µM | 25 µM | 38.4 µM | 30.6 µM | 33.1 µM | 47.1 µM | 36.3 µM | 35.3 µM | 33.3 µM | 29.2 µM | 41 µM | 33.9 µM | 76.9 µM | 35.6 µM | 26.1 µM | 45.4 µM
CC1=NN(c2ccc(S(=O)(=O)O)cc2)C2(C1)C(Cl)C(=O)N2c1nc2ccccc2s1 (stereo not given) | > 100 µM | > 100 µM | > 100 µM | > 100 µM | > 100 µM | > 100 µM | > 100 µM | > 100 µM | > 100 µM | > 100 µM | > 100 µM | > 100 µM | > 100 µM | > 100 µM | > 100 µM | > 100 µM | > 100 µM
CC(C)(C)OC(=O)N(O)[C@@H]1CC[C@H](n2cnc3c(N)ncnc32)C1 | > 100 µM | > 100 µM | > 100 µM | > 100 µM | > 100 µM | > 100 µM | > 100 µM | > 100 µM | > 100 µM | > 100 µM | > 100 µM | > 100 µM | > 100 µM | > 100 µM | > 100 µM | > 100 µM | > 100 µM
CSC1=NN(C(C)=O)C(C(OC(C)=O)C(OC(C)=O)C(OC(C)=O)C(COC(C)=O)OC(C)=O)S1 (stereo not given) | > 100 µM | > 100 µM | > 100 µM | > 100 µM | > 100 µM | > 100 µM | > 100 µM | > 100 µM | > 100 µM | > 100 µM | > 100 µM | > 100 µM | > 100 µM | > 100 µM | > 100 µM | > 100 µM | > 100 µM
CCN(CC)CCNc1ccc2ncn3c4ccc(OC)cc4c(=O)c1c23 | 29.2 µM | 20 µM | 21.4 µM | 23 µM | 11.7 µM | 28.3 µM | 4.68 µM | 7.69 µM | 19.6 µM | 5.31 µM | 9.71 µM | 40.5 µM | 21.5 µM | > 22.7 µM | 33.9 µM | 18.3 µM | 30.4 µM
